The values that follow come from patent publication US4650812A, “4-oxo-3,4-dihydro-2H-1-benzopyranyloxy alkanoic acid derivatives” (Hoffmann-La Roche Inc., priority 1985, dated 1987).

One may read the IC50 as the concentration that gives 50% inhibition.

One assay has as its system LTD4. The experiment in a line: Oral Testing of Leukotriene Antagonists (guinea pig, SRS-A antagonism). It is filed as in vivo, guinea pig (Hartley strain, Charles River). The settings on record: 10 mg/kg P.O., two hours prior to challenge with leukotriene. How it is done:
(c) Oral Testing of Leukotriene Antagonists
Male guinea pigs (Hartley strain, Charles River) weighing 400 to 600 g were anesthetized with urethane (2 g/kg) intraperitoneally and a polyethylene cannula was inserted into the jugular vein for intravenous drug administration. Tracheal pressure (cm water) was recorded from a Statham pressure transducer. After surgical preparation of the animals, a period of time was allowed for spontaneous breathing to stabilize. […] Two minutes later, spontaneous breathing was arrested with succinylcholine chloride (1.2 mg/kg, i.v.) and the animals ventilated with a Harvard (Model #680) small animal respirator set at 40 breaths per minute and 4.0 cc stroke volume. The animals were challenged with a maximum constrictory dose of either leukotriene C4 or leukotriene D4 or leukotriene E4 ([…], i.v.) at 5 minutes. Control vehicle or test drug (adjusted to an alkaline pH where necessary for drug solubilization) was administered (10 mg/kg, p.o) two hours prior to challenge with leukotriene. In order to determine the ID50 for a test drug, the dose is varied from 10 mg/kg, p.o. to 100, 50, 30, 20, 5, 3 and 1 mg/kg. p.o.
In order to determine oral duration of action, the time between exposure to test drug and challenge with leukotriene is varied.
In test procedure (c), the compounds listed in Table III were tested by this oral procedure, and the results obtained are also set out in Table III.

The test system of assay [1] is SRS-A induced constriction of the guinea pig ileum. As to the kind of experiment: Guinea Pig Ileum, In Vitro (SRS-A antagonism). It is filed as cell-based. The settings on record: Cavia porcellus. How it is done:
(a) Guinea Pig Ileum, In Vitro:
The guinea pig ileum biassay system has been described by Orange Austen, Adv. Immunol. 10: 105-144 (1969). A 1.5 cm segment is removed from animals weighing 300-400 g and suspended in an organ bath containing 10 ml of Tyrodes solution with 10^-6 M atropine sulfate and 10^-6 M pyrilamine maleate. The bath is maintained at 37° C. and aerated with a mixture of 95% oxygen and 5% carbon dioxide. The SRS-A utilized in this screen is obtained by challenging chopped lung fragments from actively sensitized guinea pigs with egg albumin, in vitro. A dose-response curve to SRS-A challenge is established for the ileum. The dose of SRS-A which given 50% of the maximal contraction (EC50) is then used for subsequent challenge. The drug concentration which inhibits, by 50%, the SRS-A induced constriction of the guinea pig ileum is determined.

The test system of the next assay is leukotriene E4. As to the kind of experiment: Guinea Pig Bronchoconstriction, In Vivo (Aerosol) (SRS-A antagonism). Also on record: species or system guinea pig (Hartley strain). The settings on record: leukotriene E4 i.v. challenge; for In vivo-aerosol IC50: 5 min exposure, % (w/v) conc. As to the method: (b) Guinea Pig Bronchoconstriction, In Vivo (Aerosol):
Male guinea pigs (Hartley strain) weighing 300 to 500 g are anesthetized with urethane (2 g/kg) intraperitoneally and a polyetylene cannula is inserted into the jugular vein for drug administration. Tracheal pressure is recorded from a cannula inserted in the trachea and connected to a Statham pressure transducer. After surgical preparation of the animals, a period of time is allowed from pulmonary functions to stabilize. The test compound is administered according to the following protocol. Propanolol (0.1 mg/kg) is administered intravenously while the animals breathed spontaneously. Five minutes thereafter, the animals are exposed for a five minute period to a 1% (w/v) aerosol solution of test compound (adjusted to an alkaline pH where necessary for drug solubilization) or to distilled water of the appropriate pH (for control purposes). A Monaghan (Model 750) ultrasonic nebulizer is used to administer all test compounds by inhalation. The nebulizer ultrasonic frequency is adjusted to produce particles in the 1-8μ diameter range (average 3μ). Aqueous solutions are prepared freshly and introduced into the chamber of the nebulizeer. The output of the nebulizer is made available to the animal by directing a bias flow of aerosol through a Y tube connected to the tracheal cannula. At the end of the exposure period, the animals are paralyzed with succinylcholine (1.2 mg/kg, i.v.) and mechanically respirated (Harvard rodent respirator) at 40 breaths/minute and 2.5 cc tidal volume. […]
The change (cm H2 O) between pre and peak ventilatory pressure readings averaged for three control animals and five drug treated animals. The percent inhibition is calculated from the following formula: [formula] When various drug concentrations are tested, the percent inhibition at each concentration is plotted as log concentration (abscissa) versus percent inhibition (ordinate) and the IC50 is determined from linear regression analysis.

Setting [2] is: SRS-A challenge at EC50, Table I, read-out: In vitro G.P. ileum IC50.

Like-named read-outs stand apart in the source and are kept apart here.

With `CCCc1c(OCCCCC2(C)CC(=O)c3ccc(OCCCC(=O)OCC)c(CCC)c3O2)ccc(C(C)=O)c1O` (racemic) [rac.-4-[2-[4-(4-acetyl-3-hydroxy-2-propylphenoxy)butyl]-3,4-dihydro-2-methyl-4-oxo-8-propyl-2H-1-benzopyran-7-yl]oxy]butanoic acid ethyl ester], the “% Inhib. of LTD4” value in the assay on LTD4 is given as 38 ± 7%.

As to `CCCc1c(OCCCCC2(C)CC(=O)c3ccc(OCCCC(=O)O)cc3O2)ccc(C(C)=O)c1O` (racemic) [rac.-4-[[2-[4-(4-acetyl-3-hydroxy-2-propylphenoxy)butyl]-3,4-dihydro-2-methyl-4-oxo-2H-1-benzopyran-7-yl]oxy]butanoic acid], in assay [1] (setting [2]), the IC50 was 3 µM.

For the compound `CCCc1c(OCCCCC2(C)CC(=O)c3ccc(OCCCC(=O)O)c(CCC)c3O2)ccc(C(C)=O)c1O` (racemic) [rac.-4-[[2-[4-(4-acetyl-3-hydroxy-2-propylphenoxy)butyl]-3,4-dihydro-2-methyl-4-oxo-8-propyl-2H-1-benzopyran-7-yl]oxy]butanoic acid], the IC50 in assay [1] (setting [2]) came to 1 µM.

`CCCc1c(OCCCCC2(C)CC(=O)c3ccc(OCC(=O)O)c(CCC)c3O2)ccc(C(C)=O)c1O` (racemic) [rac.-[2-[4-(4-acetyl-3-hydroxy-2-propylphenoxy)butyl]-3,4-dihydro-2-methyl-4-oxo-8-propyl-2H-1-benzopyran-7-yl]oxy]acetic acid]: the IC50 in assay [1] (setting [2]) amounted to 2 µM.

For `CCCc1c(OCCCCC2(C)CC(=O)c3ccc(OCC(=O)OC)cc3O2)ccc(C(C)=O)c1O` (racemic) [rac.-[[2-[4-(4-acetyl-3-hydroxy-2-propylphenoxy)butyl]-3,4-dihydro-2-methyl-4-oxo-2H-1-benzopyran-7-yl]oxy]acetic acid methyl ester], in the assay on LTD4, the “% Inhib. of LTD4” value amounted to 47 ± 5%.

As to `CCCc1c(OCCCCC2(C)CC(=O)c3ccc(OCC(=O)O)cc3O2)ccc(C(C)=O)c1O` (racemic) [rac.-[[2-[4-(4-acetyl-3-hydroxy-2-propylphenoxy)butyl]-3,4-dihydro-2-methyl-4-oxo-2H-1-benzopyran-7-yl]oxy]acetic acid], in assay [1] (setting [2]), the IC50 stood at 5 µM.

In the case of `CCCc1c(OCCCCC2(C)CC(=O)c3ccc(OCC(=O)OC)c(CCC)c3O2)ccc(C(C)=O)c1O` (racemic) [rac.-[[2-[4-(4-acetyl-3-hydroxy-2-propylphenoxy)butyl]-3,4-dihydro-2-methyl-4-oxo-8-propyl-2H-1-benzopyran-7-yl]oxy]acetic acid methyl ester], the “% Inhib. of LTD4” value with LTD4 was 25 ± 12%.

Turning to `CCCc1c(OCCCCC2CC(=O)c3ccc(OCC(=O)O)c(CCC)c3O2)ccc(C(C)=O)c1O` (racemic) [rac.-[[2-[4-(4-acetyl-3-hydroxy-2-propylphenoxy)butyl]-3,4-dihydro-4-oxo-8-propyl-2H-1-benzopyran-7-yl]oxy]acetic acid], the IC50 in assay [1] (setting [2]) amounted to 0.5 µM. Besides, the “In vivo-aerosol % inhib. at (% conc.)” value in the assay on leukotriene E4 (at 0.1 % conc.) is reported as 34.1 ± 8%.

Regarding `CCCc1c(OCCCCCCC2(C)CC(=O)c3ccc(OCC(=O)O)c(CCC)c3O2)ccc(C(C)=O)c1O` (racemic) [rac.-[[2-[6-(4-acetyl-3-hydroxy-2-propylphenoxy)hexyl]-3,4-dihydro-2-methyl-4-oxo-8-propyl-2H-1-benzopyran-7-yl]oxy]acetic acid], in assay [1] (setting [2]), the concentration for half-maximal inhibition (IC50) is 0.5 µM. The “In vivo-aerosol IC50” value in the assay on leukotriene E4 was found to be 0.26%.

`CCCc1c(OCCCCCCC2CC(=O)c3ccc(OCC(=O)O)c(CCC)c3O2)ccc(C(C)=O)c1O` (racemic) [rac.-[[2-[6-(4-acetyl-3-hydroxy-2-propylphenoxy)hexyl]-3,4-dihydro-4-oxo-8-propyl-2H-1-benzopyran-7-yl]oxy]acetic acid]: the 50% inhibitory concentration (IC50) in assay [1] (setting [2]) is 0.3 µM. Besides, the “In vivo-aerosol IC50” value in the assay with leukotriene E4 came to 0.32%.

`CCCc1c(OCC(O)Cc2ccc3c(=O)cc(C(=O)O)oc3c2CCC)ccc(C(C)=O)c1O` (centres unmarked) [7-[3-(4-acetyl-3-hydroxy-2-propylphenoxy)-2-hydroxypropyl]-4-oxo-8-propyl-4H-1-benzopyran-2-carboxylic acid, reference compound]: the IC50 in assay [1] (SRS-A challenge at EC50, read-out: IC50 of the standard SRS-A antagonist) came out at 0.035 µM.
